The supplement of paper PMC10307832

Compound: Cc1cnc(CNC(=O)c2c(=O)c3ccc(N4CCCN(C)CC4)nc3n3c2sc2ccccc23)cn1 [CX-5461] + N=C(N)NC(=N)NCCc1ccccc1 [Phenformin] (partner 250 µM)
Assay: relative viability (nuclei count vs DMSO), 5 days (fraction); higher = more cells survive
Settings: first compound 1 µM
In short: (§1)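 A single step with final 0.05% Triton X-100, 1% formaldehyde and 1 ug/ml Hoechst fixed the cells and stained nuclei 5 days after treatment. Lung cancer cell lines in 1536-well plates had been treated by pin tool the day after seeding with one drug alone or a fixed anchor-drug dose plus five library-drug doses (not always all listed) in √10 steps, and nuclei were counted on 4× images. Relative viability is the ratio of nuclei in treated wells to nuclei in vehicle wells, taken as the median of duplicate plates.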

Compared with NCI-H358, NCI-H2405 is higher in relative viability: 0.148 for the first, 0.342 for the second.

Compared with A549, NCI-H1563 is higher in relative viability: 0.0272 for the first, 0.457 for the second.

Compound: Cc1cnc(CNC(=O)c2c(=O)c3ccc(N4CCCN(C)CC4)nc3n3c2sc2ccccc23)cn1 [CX-5461] + CC(=O)c1c(C)c2cnc(Nc3ccc(N4CCNCC4)cn3)nc2n(C2CCCC2)c1=O [Palbociclib] (partner 0.5 µM)
Assay: as above
Settings: first compound 0.01 µM
In short: as §1

First: NCI-H522
Second: NCI-H727
The relative viability of the first is higher: 1.04 for the first, 0.601 for the second.

Compared with NCI-H1650, NCI-H1993 is higher in relative viability: 0.374 for the first, 0.686 for the second.

Going from SK-LU-1 to NCI-H838, the relative viability falls from 0.412 to 0.231.

Going from LCLC-103H to NCI-H520, the relative viability falls from 0.496 to 0.219.

First: NCI-H2126
Second: EMC-BAC-2
The relative viability of the first is lower: 0.351 for the first, 0.515 for the second.

Compared with NCI-H2085, HCC-366 is lower in relative viability: 0.453 for the first, 0.451 for the second.

Compared with NCI-H1666, NCI-H1395 is lower in relative viability: 0.63 for the first, 0.624 for the second.

Compared with NCI-H2087, NCI-H2342 is higher in relative viability: 0.179 for the first, 0.513 for the second.

Going from LK-2 to H3255, the relative viability falls from 0.54 to 0.282.

First: COR-L23
Second: COR-L 105
The relative viability of the first is lower: 0.27 for the first, 0.414 for the second.

Going from LOU-NH91 to ChaGo-K-1, the relative viability rises from 0.516 to 0.965.

First: NCI-H358
Second: NCI-H2405
The relative viability of the first is lower: 0.135 for the first, 0.515 for the second.

With NCI-H1648 the relative viability was 0.32.

Same assay, conditions: first compound 0.03162 µM

First: NCI-H522
Second: NCI-H727
The relative viability of the first is higher: 0.957 for the first, 0.601 for the second.

Compared with NCI-H1650, NCI-H1993 is higher in relative viability: 0.364 for the first, 0.627 for the second.

Compared with SK-LU-1, NCI-H838 is lower in relative viability: 0.407 for the first, 0.23 for the second.

Compared with LCLC-103H, NCI-H520 is lower in relative viability: 0.493 for the first, 0.212 for the second.

First: NCI-H2126
Second: EMC-BAC-2
The relative viability of the first is lower: 0.351 for the first, 0.515 for the second.

Going from NCI-H2085 to HCC-366, the relative viability rises from 0.466 to 0.546.

Compared with NCI-H1666, NCI-H1395 is lower in relative viability: 0.624 for the first, 0.599 for the second.

Going from NCI-H2087 to NCI-H2342, the relative viability rises from 0.224 to 0.505.

Compared with LK-2, H3255 is lower in relative viability: 0.972 for the first, 0.353 for the second.

Compared with COR-L23, COR-L 105 is higher in relative viability: 0.269 for the first, 0.403 for the second.

First: LOU-NH91
Second: ChaGo-K-1
The relative viability of the first is lower: 0.557 for the first, 0.95 for the second.

First: NCI-H358
Second: NCI-H2405
The relative viability of the first is lower: 0.124 for the first, 0.549 for the second.

Work on NCI-H1648 yielded a relative viability of 0.267.

Same assay, conditions: first compound 0.1 µM

Compared with NCI-H522, NCI-H727 is lower in relative viability: 1.18 for the first, 0.717 for the second.

Going from NCI-H1650 to NCI-H1993, the relative viability rises from 0.35 to 0.699.

Compared with SK-LU-1, NCI-H838 is lower in relative viability: 0.376 for the first, 0.224 for the second.

Compared with LCLC-103H, NCI-H520 is lower in relative viability: 0.458 for the first, 0.25 for the second.

Going from NCI-H2126 to EMC-BAC-2, the relative viability rises from 0.358 to 0.468.

Going from NCI-H2085 to HCC-366, the relative viability falls from 0.477 to 0.355.

First: NCI-H1666
Second: NCI-H1395
The relative viability of the first is higher: 0.678 for the first, 0.586 for the second.

Compared with NCI-H2087, NCI-H2342 is higher in relative viability: 0.258 for the first, 0.486 for the second.

First: LK-2
Second: H3255
The relative viability of the first is higher: 0.724 for the first, 0.299 for the second.

Going from COR-L23 to COR-L 105, the relative viability rises from 0.233 to 0.393.

Compared with LOU-NH91, ChaGo-K-1 is higher in relative viability: 0.513 for the first, 0.927 for the second.

Going from NCI-H358 to NCI-H2405, the relative viability rises from 0.135 to 0.547.

Cell Line NCI-H1648 has a relative viability of 0.254.

Same assay, conditions: first compound 0.3162 µM

Going from NCI-H727 to NCI-H1650, the relative viability falls from 0.65 to 0.289.

Going from NCI-H1993 to SK-LU-1, the relative viability falls from 0.583 to 0.388.

Compared with NCI-H838, LCLC-103H is higher in relative viability: 0.212 for the first, 0.466 for the second.

First: NCI-H520
Second: NCI-H2126
The relative viability of the first is lower: 0.247 for the first, 0.351 for the second.

Compared with EMC-BAC-2, NCI-H2085 is higher in relative viability: 0.433 for the first, 0.454 for the second.

Compared with HCC-366, NCI-H1666 is higher in relative viability: 0.308 for the first, 0.626 for the second.

Compared with NCI-H1395, NCI-H2087 is lower in relative viability: 0.572 for the first, 0.254 for the second.

First: NCI-H2342
Second: H3255
The relative viability of the first is higher: 0.531 for the first, 0.305 for the second.

First: COR-L23
Second: COR-L 105
The relative viability of the first is lower: 0.234 for the first, 0.319 for the second.

First: LOU-NH91
Second: ChaGo-K-1
The relative viability of the first is lower: 0.439 for the first, 0.933 for the second.

Going from NCI-H358 to NCI-H2405, the relative viability rises from 0.0878 to 0.503.

NCI-H1648 was tested, and the relative viability was 0.274.

Same assay, conditions: first compound 1 µM

Going from NCI-H522 to NCI-H727, the relative viability falls from 0.993 to 0.637.

Going from NCI-H1650 to NCI-H1993, the relative viability rises from 0.151 to 0.614.

First: SK-LU-1
Second: NCI-H838
The relative viability of the first is higher: 0.358 for the first, 0.253 for the second.

Going from LCLC-103H to NCI-H520, the relative viability falls from 0.464 to 0.176.

Compared with NCI-H2126, EMC-BAC-2 is higher in relative viability: 0.365 for the first, 0.412 for the second.

Going from NCI-H2085 to HCC-366, the relative viability falls from 0.457 to 0.287.

Going from NCI-H1666 to NCI-H1395, the relative viability falls from 0.572 to 0.498.

First: NCI-H2087
Second: NCI-H2342
The relative viability of the first is lower: 0.268 for the first, 0.522 for the second.

Compared with LK-2, H3255 is lower in relative viability: 0.564 for the first, 0.302 for the second.

First: COR-L23
Second: COR-L 105
The relative viability of the first is lower: 0.125 for the first, 0.357 for the second.

Compared with LOU-NH91, ChaGo-K-1 is higher in relative viability: 0.478 for the first, 0.899 for the second.

Compared with NCI-H358, NCI-H2405 is higher in relative viability: 0.084 for the first, 0.45 for the second.

NCI-H1648 showed a relative viability of 0.284.

Compound: O=C(Nc1cc(C(F)(F)F)cc(C(F)(F)F)c1)c1cc(Cl)ccc1O [IMD-0354] + N=C(N)NC(=N)NCCc1ccccc1 [Phenformin] (partner 250 µM)
Assay: as above
Settings: first compound 0.04 µM
In short: as §1

Going from NCI-H522 to NCI-H1623, the relative viability falls from 0.614 to 0.565.

Compared with NCI-H727, NCI-H1650 is lower in relative viability: 0.483 for the first, 0.46 for the second.

Compared with NCI-H1993, SK-LU-1 is higher in relative viability: 0.48 for the first, 0.713 for the second.
